Data published in publication PMC9833666, “Designing and identifying β-hairpin peptide macrocycles with antibiotic potential” (Science Advances, 2023).
Like-named read-outs stand apart in the source and are kept apart here. Bridge positions count the residues as written; N and C are the ends. Peptide text beside a SMILES is read from it.

Tested on: Escherichia coli W3110
Type: cell-based
Conditions: for Ec W3110 MIC MH: E. coli W3110, MH medium; for Ec W3110 MIC RPMI: E. coli W3110, RPMI medium

| Compound | Ec W3110 MIC MH | Ec W3110 MIC RPMI | W3110 MIC MH (W3110) | W3110 MIC RPMI (W3110) | W3110 MIC MH (E. coli W3110, standard Mueller-Hinton broth, 37°C, 18-24 h, median of n=3) | W3110 MIC (W3110) |
| --- | --- | --- | --- | --- | --- | --- |
| CC[C@H](C)[C@@H]1NC(=O)[C@H](CCCCN)NC(=O)[C@H](CC(C)C)NC(=O)CNC(=O)[C@H](CCCNC(=N)N)NC(=O)[C@H](CCCNC(=N)N)NC(=O)[C@H](CCCNC(=N)N)NC(=O)[C@H](CC(N)=O)NC(=O)[C@H](CC(N)=O)NC(=O)[C@H](CC(C)C)NC(=O)[C@H](CCCNC(=N)N)NC(=O)[C@H](C(C)C)NC(=O)[C@H](CCCNC(=N)N)NC(=O)[C@H](C(C)C)NC(=O)[C@@H](N)CSSC[C@@H](C(=O)O)NC(=O)[C@H](C(C)C)NC(=O)[C@H](CCC(N)=O)NC(=O)[C@H](CC(C)C)NC(=O)[C@H](CO)NC1=O [SySA-9] (H-CVRVRLNNRRRGLKISLQVC-OH; disulfide 1-20; N-terminus and C-terminus assumed) | 128 µg/mL | 8 µg/mL | – | 8 µg/mL | 128 µg/mL | – |
| CC[C@H](C)[C@@H]1NC(=O)[C@H](CCCNC(=N)N)NC(=O)[C@H](C(C)C)NC(=O)[C@H](CCCNC(=N)N)NC(=O)[C@@H](N)CSSC[C@@H](C(=O)O)NC(=O)[C@H](CCC(N)=O)NC(=O)[C@H](C(C)C)NC(=O)[C@H](CCC(N)=O)NC(=O)[C@H](CC(C)C)NC(=O)[C@H](CCCCN)NC(=O)[C@H](CC(C)C)NC(=O)[C@H]([C@@H](C)O)NC(=O)CNC(=O)CNC(=O)[C@H](CCCNC(=N)N)NC(=O)[C@H](CC(N)=O)NC(=O)[C@H](CC(=O)O)NC(=O)[C@H](C(C)C)NC(=O)[C@H](CC(N)=O)NC1=O [SyRC-11] (H-CRVRINVDNRGGTLKLQVQC-OH; disulfide 1-20) | – | – | – | – | – | >256 µg/mL |
| CC[C@H](C)[C@@H]1NC(=O)[C@H](CC(N)=O)NC(=O)[C@H](C(C)C)NC(=O)[C@H](CCCCN)NC(=O)[C@H]([C@@H](C)CC)NC(=O)[C@H](CCCNC(=N)N)NC(=O)[C@@H](N)CSSC[C@@H](C(=O)O)NC(=O)[C@H](CCC(=O)O)NC(=O)[C@H](CC(C)C)NC(=O)[C@H](CCC(=O)O)NC(=O)[C@H](CC(C)C)NC(=O)[C@H](CCCCN)NC(=O)[C@H](C(C)C)NC(=O)[C@H]([C@@H](C)O)NC(=O)[C@H](CCCNC(=N)N)NC(=O)[C@H](CCCNC(=N)N)NC(=O)[C@H](CCCNC(=N)N)NC(=O)[C@H](CC(N)=O)NC(=O)[C@H](CC(N)=O)NC1=O [SyRC-6] (H-CRIKVNINNRRRTVKLELEC-OH; disulfide 1-20) | – | – | – | – | – | >256 µg/mL |
| CC[C@H](C)[C@@H]1NC(=O)[C@H](CC(N)=O)NC(=O)[C@H](C(C)C)NC(=O)[C@H](CCCCN)NC(=O)[C@H]([C@@H](C)CC)NC(=O)[C@H](CCCNC(=N)N)NC(=O)[C@@H](N)CSSC[C@@H](C(=O)O)NC(=O)[C@H](CCC(=O)O)NC(=O)[C@H](CC(C)C)NC(=O)[C@H](CCC(=O)O)NC(=O)[C@H](CC(C)C)NC(=O)[C@H](CCCNC(=N)N)NC(=O)[C@H](CC(C)C)NC(=O)[C@H](CCCNC(=N)N)NC(=O)[C@H](CCCNC(=N)N)NC(=O)[C@H](CO)NC(=O)[C@H](CCCNC(=N)N)NC(=O)[C@H](CC(=O)O)NC(=O)[C@H](CC(=O)O)NC1=O [SyRC-8] (H-CRIKVNIDDRSRRLRLELEC-OH; disulfide 1-20) | – | – | – | – | – | >256 µg/mL |
| CC[C@H](C)[C@@H]1NC(=O)[C@H](CC(=O)O)NC(=O)[C@H](C(C)C)NC(=O)[C@H](CCCCN)NC(=O)[C@H]([C@@H](C)CC)NC(=O)[C@H](CCCNC(=N)N)NC(=O)[C@@H](N)CSSC[C@@H](C(=O)O)NC(=O)[C@H](CCC(=O)O)NC(=O)[C@H](CC(C)C)NC(=O)[C@H](CCC(N)=O)NC(=O)[C@H](CC(C)C)NC(=O)[C@H](CCCNC(=N)N)NC(=O)[C@H](C(C)C)NC(=O)[C@H](CCCNC(=N)N)NC(=O)CNC(=O)[C@H](CCCNC(=N)N)NC(=O)[C@H](CCCNC(=N)N)NC(=O)[C@H](CC(=O)O)NC(=O)[C@H](CC(=O)O)NC1=O [SyRC-7] (H-CRIKVDIDDRRGRVRLQLEC-OH; disulfide 1-20) | – | – | – | – | – | >256 µg/mL |
| CC[C@H](C)[C@@H]1NC(=O)[C@H]([C@@H](C)O)NC(=O)[C@H](C(C)C)NC(=O)[C@@H](N)CSSC[C@@H](C(=O)O)NC(=O)[C@H](C(C)C)NC(=O)[C@H](CCC(N)=O)NC(=O)[C@H](C(C)C)NC(=O)[C@H]([C@@H](C)O)NC(=O)[C@H](C(C)C)NC(=O)[C@H](CCCNC(=N)N)NC(=O)[C@H](CC(C)C)NC(=O)CNC(=O)[C@H](CCCNC(=N)N)NC(=O)[C@H](CCCNC(=N)N)NC(=O)[C@H](CCCNC(=N)N)NC(=O)[C@H](CC(=O)O)NC(=O)[C@H](CC(=O)O)NC(=O)[C@H](CC(C)C)NC(=O)[C@H](CCCNC(=N)N)NC1=O [SyRA-9] (H-CVTIRLDDRRRGLRVTVQVC-OH; disulfide 1-20) | – | – | – | – | – | >256 µg/mL |
| CC[C@H](C)[C@@H]1NC(=O)[C@H](CCCNC(=N)N)NC(=O)[C@H](C(C)C)NC(=O)[C@H](CCCNC(=N)N)NC(=O)[C@H](CO)NC(=O)CNC(=O)CNC(=O)[C@H](CC(N)=O)NC(=O)[C@H](CC(N)=O)NC(=O)[C@H](C(C)C)NC(=O)[C@H](CCCNC(=N)N)NC(=O)[C@H]([C@@H](C)CC)NC(=O)[C@H](CCCNC(=N)N)NC(=O)[C@H](CC(C)C)NC(=O)[C@@H](N)CSSC[C@@H](C(=O)O)NC(=O)[C@H](C(C)C)NC(=O)[C@H](CCC(=O)O)NC(=O)[C@H](CC(C)C)NC(=O)[C@H](CO)NC1=O [SyRA-10] (H-CLRIRVNNGGSRVRISLEVC-OH; disulfide 1-20) | – | – | – | – | – | >256 µg/mL |

Continued, values first:

| Ec W3110 MIC MH | Ec W3110 MIC RPMI | W3110 MIC MH (W3110) | W3110 MIC RPMI (W3110) | W3110 MIC MH (E. coli W3110, standard Mueller-Hinton broth, 37°C, 18-24 h, median of n=3) | W3110 MIC (W3110) | Compound |
| --- | --- | --- | --- | --- | --- | --- |
| 64 µg/mL | 16 µg/mL | 64 µg/mL | 16 µg/mL | – | – | CC[C@H](C)[C@@H]1NC(=O)[C@H](CCCNC(=N)N)NC(=O)[C@H](C(C)C)NC(=O)[C@H](CCCNC(=N)N)NC(=O)[C@H](CCCNC(=N)N)NC(=O)[C@H](CCCNC(=N)N)NC(=O)[C@H](CCCNC(=N)N)NC(=O)[C@H](CC(N)=O)NC(=O)[C@H](CC(N)=O)NC(=O)[C@H](C(C)C)NC(=O)[C@H](CCCNC(=N)N)NC(=O)[C@H](C(C)C)NC(=O)[C@H]([C@@H](C)O)NC(=O)[C@H](C(C)C)NC(=O)[C@@H](N)CSSC[C@@H](C(=O)O)NC(=O)[C@H](C(C)C)NC(=O)[C@H](CCC(N)=O)NC(=O)[C@H](C(C)C)NC(=O)[C@H](CO)NC1=O [SySA-11] (H-CVTVRVNNRRRRVRISVQVC-OH; disulfide 1-20; N-terminus and C-terminus assumed) |
| 64 µg/mL | 8 µg/mL | 64 µg/mL | 8 µg/mL | – | – | CC[C@H](C)[C@@H]1NC(=O)[C@H](CCCCN)NC(=O)[C@H](CC(C)C)NC(=O)CNC(=O)[C@H](CCCNC(=N)N)NC(=O)[C@H](CCCNC(=N)N)NC(=O)[C@H](CCCNC(=N)N)NC(=O)[C@H](CC(N)=O)NC(=O)[C@H](CC(N)=O)NC(=O)[C@H](CC(C)C)NC(=O)[C@H](CCCNC(=N)N)NC(=O)[C@H]([C@@H](C)CC)NC(=O)[C@H](CCCNC(=N)N)NC(=O)[C@H](C(C)C)NC(=O)[C@@H](N)CSSC[C@@H](C(=O)O)NC(=O)[C@H](C(C)C)NC(=O)[C@H](CCC(N)=O)NC(=O)[C@H](CC(C)C)NC(=O)[C@H](CO)NC1=O [SySA-82] (H-CVRIRLNNRRRGLKISLQVC-OH; disulfide 1-20; N-terminus and C-terminus assumed) |
| 256 µg/mL | 32 µg/mL | 256 µg/mL | 32 µg/mL | – | – | CC(C)C[C@@H]1NC(=O)CNC(=O)[C@H](CCCNC(=N)N)NC(=O)[C@H](CCCNC(=N)N)NC(=O)[C@H](CCCNC(=N)N)NC(=O)[C@H](CC(N)=O)NC(=O)[C@H](CC(N)=O)NC(=O)[C@H](CC(C)C)NC(=O)[C@H](CCCNC(=N)N)NC(=O)[C@H](C(C)C)NC(=O)[C@H](CCCNC(=N)N)NC(=O)[C@H](C(C)C)NC(=O)[C@@H](N)CSSC[C@@H](C(=O)O)NC(=O)[C@H](C(C)C)NC(=O)[C@H](CCC(N)=O)NC(=O)[C@H](CC(C)C)NC(=O)[C@H]([C@@H](C)O)NC(=O)[C@H](C(C)C)NC(=O)[C@H](CCCCN)NC1=O [SySA-45] (H-CVRVRLNNRRRGLKVTLQVC-OH; disulfide 1-20; N-terminus and C-terminus assumed) |
| 32 µg/mL | 32 µg/mL | 32 µg/mL | 32 µg/mL | – | – | CC[C@H](C)[C@@H]1NC(=O)[C@H](CCCNC(=N)N)NC(=O)[C@H](C(C)C)NC(=O)[C@@H](N)CSSC[C@@H](C(=O)O)NC(=O)[C@H](C(C)C)NC(=O)[C@H](CCC(N)=O)NC(=O)[C@H](CC(C)C)NC(=O)[C@H]([C@@H](C)O)NC(=O)[C@H](C(C)C)NC(=O)[C@H](CCCCN)NC(=O)[C@H](C(C)C)NC(=O)[C@H](CCCNC(=N)N)NC(=O)[C@H](CCCNC(=N)N)NC(=O)CNC(=O)CNC(=O)[C@H](CC(N)=O)NC(=O)[C@H](CC(N)=O)NC(=O)[C@H](CC(C)C)NC(=O)[C@H](CCCNC(=N)N)NC1=O [SySA-53] (H-CVRIRLNNGGRRVKVTLQVC-OH; disulfide 1-20; N-terminus and C-terminus assumed) |
| 128 µg/mL | 32 µg/mL | 128 µg/mL | 32 µg/mL | – | – | CC[C@H](C)[C@@H]1NC(=O)[C@H](CC(N)=O)NC(=O)[C@H](C(C)C)NC(=O)[C@H](CCCCN)NC(=O)[C@H]([C@@H](C)CC)NC(=O)[C@H](CCCNC(=N)N)NC(=O)[C@@H](N)CSSC[C@@H](C(=O)O)NC(=O)[C@H](CCC(N)=O)NC(=O)[C@H](CC(C)C)NC(=O)[C@H](CCC(N)=O)NC(=O)[C@H](CC(C)C)NC(=O)[C@H](CCCCN)NC(=O)[C@H](C(C)C)NC(=O)[C@H](CCCNC(=N)N)NC(=O)[C@H](CCCNC(=N)N)NC(=O)[C@H](CCCNC(=N)N)NC(=O)CNC(=O)[C@H](CC(N)=O)NC(=O)[C@H](CC(N)=O)NC1=O [SySA-34] (H-CRIKVNINNGRRRVKLQLQC-OH; disulfide 1-20; N-terminus and C-terminus assumed) |
| 256 µg/mL | 64 µg/mL | 256 µg/mL | 64 µg/mL | – | – | CC[C@H](C)[C@@H]1NC(=O)[C@H](CCCNC(=N)N)NC(=O)[C@H](CC(C)C)NC(=O)CNC(=O)CNC(=O)CNC(=O)[C@H](CCCNC(=N)N)NC(=O)[C@H](CC(N)=O)NC(=O)[C@H](CC(N)=O)NC(=O)[C@H](CC(C)C)NC(=O)[C@H](CCCNC(=N)N)NC(=O)[C@H](C(C)C)NC(=O)[C@H](CCCNC(=N)N)NC(=O)[C@H](C(C)C)NC(=O)[C@@H](N)CSSC[C@@H](C(=O)O)NC(=O)[C@H](C(C)C)NC(=O)[C@H](CCC(N)=O)NC(=O)[C@H](CC(C)C)NC(=O)[C@H]([C@@H](C)O)NC1=O [SySA-27] (H-CVRVRLNNRGGGLRITLQVC-OH; disulfide 1-20; N-terminus and C-terminus assumed) |
